Data from ChEMBL document CHEMBL4339254, “Lamellarin Sulfates from the Pacific Tunicate Didemnum ternerratum” (J Nat Prod, 2019).
pIC50: −log10 of the molar value.

Test system: HCT-116
Assay: Cytotoxicity in human HCT116 cells assessed as reduction in cell viability incubated for 48 hrs by MTS assay
Assay type: functional, cell-based
Details: for IC50: hct-116; for pIC50: Homo sapiens, HCT-116, 48 h, read-out: IC50; call rule not given here

In the case of `COc1ccc(-c2c3n(c4c(=O)oc5cc(OS(=O)(=O)O)c(O)cc5c24)CCc2cc(OC)c(O)cc2-3)cc1O`, the IC50 was “Not Active”.
With `COc1cc(-c2c3n(c4c(=O)oc5cc(OS(=O)(=O)O)c(OC)cc5c24)CCc2c-3cc(OC)c(OC)c2O)ccc1O` the IC50 was “Not Active”.
`COc1cc(-c2c3c4cc(OC)c(OS(=O)(=O)O)cc4oc(=O)c3n3ccc4cc(OC)c(OC)cc4c23)ccc1O` was tested, and the IC50 was “Not Active”.
`COc1ccc(-c2c3n(c4c(=O)oc5cc(OS(=O)(=O)O)c(OC)cc5c24)CCc2c-3cc(OC)c(OC)c2O)cc1O` was tested, and the IC50 was “Not Active”.
`COc1cc(-c2c3n(c4c(=O)oc5cc(OS(=O)(=O)O)c(OC)cc5c24)CCc2cc(OC)c(OC)cc2-3)ccc1O` was tested, and the IC50 was “Not Active”.
Work on `COc1cc(-c2c3c4cc(OC)c(O)cc4oc(=O)c3n3ccc4cc(OS(=O)(=O)O)c(OC)cc4c23)ccc1O` yielded a pIC50 of 5.01.
With `COc1cc(-c2c3n(c4c(=O)oc5cc(O)c(OC)cc5c24)CCc2c-3cc(OC)c(OC)c2O)ccc1O` the pIC50 was 5.37.
